The values below come from patent US20240199647A1, “ANTI-VIRAL COMPOUNDS” (Aligos Therapeutics, Inc., priority 2022, published 2024).

SMILES strings stand for the structures. Where two headings read alike, the source gives them in different places. Some results are limits rather than exact numbers.

Data set [1] relates to SARS-CoV-2 B.1.1.7 lineage. The data set can be described thus: microbe, parasite or virus in culture. It counts as cell-based. The settings on record: Severe acute respiratory syndrome coronavirus 2, Table C, SARS-CoV-2 B.1.1.7 in A549-dual_ACE2_TMPRSS2 cells, read-out: A549-dual_ACE2_TMPRSS2 (EC50).
A short description of data set [2]: in vitro. The settings on record: human.
Data set [3] in a line: Cytotoxicity in HeLa cells without addition of OC43 virus (in parallel). The settings on record: human, HeLa cells, without OC43 virus.
Data set [4] addresses SARS-Cov-2 3CLpro (Severe acute respiratory syndrome coronavirus 2, UniProt P0DTD1). The data set is described as follows: biochemical. The conditions noted are these: Table A, class symbols, read-out: SARS-Cov-2 (IC50).
Data set [5] deals with human beta-coronavirus OC43. The data set can be described thus: OC43 Coronavirus Assay in HeLa cells (antiviral, cytopathic effect, cell-titer-glo). The conditions noted are these: Betacoronavirus 1, OC43, HeLa, Table B, OC43 coronavirus in HeLa cells, read-out: EC50. Format: cell-based. In general terms: Cytopathic effects are the visible damage that an infection or toxin causes in cultured cells.

Regarding `C[C@@H](OC(C)(C)C)[C@H](NC(=O)C(F)(F)F)C(=O)N(C)[C@@H](CC1CC1)C(=O)N1C[C@@]2(C[C@H]1C#N)Oc1cccnc1NC2=O` [Compound 196], the results for the EC50 in data set [1] (class symbols) and in data set [5] (class symbols) were 0.1 to 1 µM and less than 0.1 µM, respectively. The same compound showed a CC50 in data set [2] greater than 1 µM. In data set [3], this compound gave a CC50 at 6 days greater than 10 µM. Besides, the IC50 in data set [4] is less than 0.02 µM.

Consider `CN(C(=O)[C@H](CC(F)(F)F)NC(=O)C(F)(F)F)[C@@H](CC1CC1)C(=O)N1C[C@@]2(C[C@H]1C#N)Oc1cc(F)cc(F)c1NC2=O` [Compound 85], for which the EC50 was less than 0.1 µM in data set [1] (class symbols) and 0.1 to 1 µM in data set [5] (class symbols). In data set [2], this compound showed a CC50 greater than 1 µM. For the same compound, the CC50 at 6 days in data set [3] was greater than 10 µM. For the same compound, the IC50 in data set [4] is less than 0.02 µM.

Turning to `CC(C)C[C@@H](C(=O)N1C[C@@]2(C[C@H]1C#N)Oc1cc(F)c(F)cc1NC2=O)N(C)C(=O)[C@H](C)NC(=O)C(F)(F)F` [Compound 48], the EC50 in data set [1] (class symbols) and in data set [5] (class symbols) was 0.1 to 1 µM in each case. In data set [2], this compound displayed a CC50 greater than 1 µM. Moreover, in data set [3], the CC50 at 6 days was greater than 10 µM. In data set [4], the IC50 was less than 0.02 µM.

Take `CN(C(=O)[C@@H](NC(=O)C(F)(F)F)C1CC1)[C@@H](CC1CC1)C(=O)N1C[C@@]2(C[C@H]1C#N)Oc1cc(F)cc(F)c1NC2=O` [Compound 194]: the EC50 in data set [1] (class symbols) and in data set [5] (class symbols) was less than 0.1 µM each time. This compound also had a CC50 in data set [2] greater than 1 µM. For the same compound, the CC50 at 6 days in data set [3] was greater than 10 µM. The IC50 in data set [4] is less than 0.02 µM.

Regarding `CN(C(=O)[C@H](CC1CC(F)(F)C1)NC(=O)C(F)(F)F)[C@@H](CC1CC1)C(=O)N1C[C@@]2(C[C@H]1C#N)Oc1cccnc1NC2=O` [Compound 187], the figures for the 50% effective concentration (EC50) in data set [1] (class symbols) and in data set [5] (class symbols) were 0.1 to 1 µM and less than 0.1 µM, respectively. Further, the CC50 in data set [2] was greater than 1 µM. This compound showed a CC50 at 6 days in data set [3] greater than 10 µM. Besides, in data set [4], the IC50 is less than 0.02 µM.

As to `C[C@H](NC(=O)C(F)(F)F)C(=O)N(C)[C@H](C(=O)N1C[C@@]2(C[C@H]1C#N)Oc1cc(F)cc(F)c1NC2=O)[C@@H](C)OC(C)(C)C` [Compound 154], the EC50 was greater than 1 µM in data set [1] (cells given as a bound) and 1 to 10 µM in data set [5] (class symbols). The same compound gave a CC50 in data set [2] greater than 1 µM. The CC50 at 6 days in data set [3] was greater than 10 µM. The IC50 in data set [4] lay within 0.2 to 2 µM.

On to `C[C@H](NC(=O)C1(F)CC1)C(=O)N(C)[C@@H](CC1CC1)C(=O)N1C[C@@]2(C[C@H]1C#N)Oc1cccnc1NC2=O` [Compound 169], for which the EC50 is 0.1 to 1 µM in data set [1] (class symbols) and less than 0.1 µM in data set [5] (class symbols). This compound had a CC50 in data set [2] greater than 1 µM. Besides, in data set [3], the CC50 at 6 days was greater than 10 µM. Moreover, in data set [4], the IC50 is less than 0.02 µM.

In the case of `CN(C(=O)[C@H](CC1CC1)NC(=O)C(F)(F)F)[C@@H](CC1CC1)C(=O)N1C[C@@]2(C[C@H]1C#N)Oc1ccccc1C(C)(C)NC2=O` [Compound 228], the EC50 in data set [1] (class symbols) and in data set [5] (class symbols) was 0.1 to 1 µM throughout. The compound also registered a CC50 in data set [2] greater than 1 µM. In addition, the CC50 at 6 days in data set [3] is greater than 10 µM. In addition, in data set [4], the concentration for half-maximal inhibition (IC50) was in the range of 0.02 to 0.2 µM.

`C[C@H](NC(=O)C(F)(F)F)C(=O)N(C)[C@@H](CC1CC1)C(=O)N1C[C@@]2(C[C@H]1C#N)Oc1cc(F)cc(F)c1NC2=O` [Example 37, (S)—N—((S)-1-((2R,5'S)-5′-cyano-5,7-difluoro-3-oxo-3,4-dihydrospiro[benzo[b][1,4]oxazine-2,3′-pyrrolidin]-1′-yl)-3-cyclopropyl-1-oxopropan-2-yl)-N-methyl-2-(2,2,2-trifluoroacetamido)propanamide]: the EC50 in data set [1] (class symbols) is 0.1 to 1 µM; in data set [5] (class symbols), less than 0.1 µM. The CC50 in data set [2] is greater than 1 µM. Moreover, in data set [3], the CC50 at 6 days is greater than 10 µM. Besides, the IC50 in data set [4] is less than 0.02 µM.

`CN(C(=O)[C@H](CC1CC1)NC(=O)C(F)(F)F)[C@@H](CC1CC1)C(=O)N1C[C@]2(C[C@H]1C#N)C(=O)Nc1nccn12` [Example 31, (2S)—N-[(2S)-1-[(3R,5'S)-5′-cyano-2-oxo-1H-spiro[[1,3]diazolo[1,2-a]imidazole-3,3′-pyrrolidin]-1′-yl]-3-cyclopropyl-1-oxopropan-2-yl]-3-cyclopropyl-N-methyl-2-(2,2,2-trifluoroacetamido)propanamide]: the EC50 in data set [1] (cells given as a bound) was greater than 1 µM; in data set [5] (cells given as a bound) it was greater than 10 µM. In data set [2], this compound yielded a CC50 greater than 1 µM. Besides, the CC50 at 6 days in data set [3] is greater than 10 µM. For the same compound, the IC50 in data set [4] lay in the range of 0.02 to 0.2 µM.

Take `Cc1cnc2c(c1)NC(=O)[C@]1(C[C@@H](C#N)N(C(=O)[C@H](CC3CC3)N(C)C(=O)[C@H](CC3CC3)NC(=O)C(F)(F)F)C1)O2` [Compound 126, (S)—N—((S)-1-((3R,5'S)-5′-cyano-7-methyl-2-oxo-1,2-dihydrospiro[pyrido[2,3-b][1,4]oxazine-3,3′-pyrrolidin]-1′-yl)-3-cyclopropyl-1-oxopropan-2-yl)-3-cyclopropyl-N-methyl-2-(2,2,2-trifluoroacetamido)propanamide]: the EC50 in data set [1] (class symbols) is 0.1 to 1 µM; in data set [5] (class symbols), less than 0.1 µM. In addition, in data set [2], the CC50 is greater than 1 µM. Besides, the CC50 at 6 days in data set [3] is greater than 10 µM. The IC50 in data set [4] is less than 0.02 µM.

Regarding `CN(C(=O)[C@H](CC1CC1)NC(=O)C(F)(F)F)[C@@H](CC1CC1)C(=O)N1C[C@@]2(C[C@H]1C#N)Oc1cccc(F)c1CNC2=O` [Compound 141], the EC50 in data set [1] (class symbols) was 0.1 to 1 µM; in data set [5] (class symbols), less than 0.1 µM. For the same compound, the CC50 in data set [2] is greater than 1 µM. Also, in data set [3], the CC50 at 6 days is greater than 10 µM. For the same compound, in data set [4], the IC50 is less than 0.02 µM.

With `Cc1ccc2c(n1)NC(=O)[C@]1(C[C@@H](C#N)N(C(=O)[C@H](CC3CC3)N(C)C(=O)[C@H](C)NC(=O)C(F)(F)F)C1)O2` [Compound 229, (S)—N—((S)-1-((2R,5'S)-5′-cyano-6-methyl-3-oxo-3,4-dihydrospiro[pyrido[3,2-b][1,4]oxazine-2,3′-pyrrolidin]-1′-yl)-3-cyclopropyl-1-oxopropan-2-yl)-N-methyl-2-(2,2,2-trifluoroacetamido)propanamide], the results for the EC50 in data set [1] (class symbols) and in data set [5] (class symbols) were 0.1 to 1 µM and less than 0.1 µM, respectively. This compound displayed a CC50 in data set [2] greater than 1 µM. This compound also returned a CC50 at 6 days in data set [3] greater than 10 µM. Also, the IC50 in data set [4] is less than 0.02 µM.

Take `Cc1c(-c2ccccc2)nn2c1NC(=O)[C@]21C[C@@H](C#N)N(C(=O)[C@H](CC(C)C)N(C)C(=O)[C@H](C)NC(=O)C(F)(F)F)C1` [Compound 130]: the EC50 in data set [1] (class symbols) and in data set [5] (class symbols) was 0.1 to 1 µM throughout. For the same compound, in data set [2], the CC50 is greater than 1 µM. In data set [3], this compound showed a CC50 at 6 days greater than 10 µM. Further, the IC50 in data set [4] fell in the range of 0.02 to 0.2 µM.

Take `CN(C(=O)[C@H](CC1CC1)NC(=O)C(F)(F)F)C(CC1CC1)C(=O)N1C[C@@]2(C[C@H]1C#N)Oc1cc(S(C)(=O)=O)ccc1NC2=O` (stereo in doubt) [Compound 110, (S)—N—((S)-1-((2R,5'S)-5′-cyano-7-(methylsulfonyl)-3-oxo-3,4-dihydrospiro[benzo[b][1,4]oxazine-2,3′-pyrrolidin]-1′-yl)-3-cyclopropyl-1-oxopropan-2-yl)-3-cyclopropyl-N-methyl-2-(2,2,2-trifluoroacetamido)propanamide]: the figures for the EC50 in data set [1] (cells given as a bound) and in data set [5] (class symbols) were greater than 1 µM and less than 0.1 µM, respectively. This compound also showed a CC50 in data set [2] greater than 1 µM. Moreover, the CC50 at 6 days in data set [3] is greater than 10 µM. Further, the IC50 in data set [4] was less than 0.02 µM.

Take `CN(C(=O)[C@@H](Cc1ccc(F)cc1)NC(=O)C(F)(F)F)[C@@H](CC1CC1)C(=O)N1C[C@@]2(C[C@H]1C#N)Oc1ncccc1NC2=O` [Compound 205]: the EC50 in data set [1] (class symbols) and in data set [5] (class symbols) was less than 0.1 µM throughout. In data set [2], the CC50 was greater than 1 µM. Also, the CC50 at 6 days in data set [3] was greater than 10 µM. Moreover, the IC50 in data set [4] is less than 0.02 µM.

For `CN(C(=O)[C@H](CC1(C)CC1)NC(=O)C(F)(F)F)[C@@H](CC1(C)CC1)C(=O)N1C[C@@]2(C[C@H]1C#N)Oc1cccnc1NC2=O` [Compound 215], the EC50 in data set [1] (class symbols) and in data set [5] (class symbols) was less than 0.1 µM each time. Also, the CC50 in data set [2] was greater than 1 µM. The same compound returned a CC50 at 6 days in data set [3] greater than 10 µM. Besides, the IC50 in data set [4] was less than 0.02 µM.

As for `CCN(C(=O)[C@H](C)NC(=O)C(F)(F)F)[C@@H](CC(C)C)C(=O)N1C[C@@]2(C[C@H]1C#N)Oc1cc(F)cc(F)c1NC2=O` [Compound 106], the EC50 in data set [1] (class symbols) and in data set [5] (class symbols) was 0.1 to 1 µM each time. The CC50 in data set [2] is greater than 1 µM. Moreover, the CC50 at 6 days in data set [3] is greater than 10 µM. Further, the IC50 in data set [4] is less than 0.02 µM.

`CN(C(=O)[C@H](CC1CC1)n1cc(C(F)(F)F)nn1)[C@@H](CC1CC1)C(=O)N1C[C@@]2(C[C@H]1C#N)Oc1cc(F)cc(F)c1NC2=O` [Compound 157]: the EC50 in data set [1] (class symbols) and in data set [5] (class symbols) was less than 0.1 µM throughout. Besides, the CC50 in data set [2] was greater than 1 µM. The compound further registered a CC50 at 6 days in data set [3] greater than 10 µM. In addition, the IC50 in data set [4] is less than 0.02 µM.

In the case of `CC(C)C[C@@H](C(=O)N1C[C@]2(CC(c3ccccc3)NC2=O)C[C@H]1C#N)N(C)C(=O)[C@H](C)NC(=O)C(F)(F)F` (stereo partly drawn) [Compound 24], the EC50 in data set [1] (class symbols) was in the range of 0.1 to 1 µM; in data set [5] (class symbols), 1 to 10 µM. Besides, in data set [2], the CC50 was greater than 1 µM. In data set [3], this compound had a CC50 at 6 days greater than 10 µM. Also, the IC50 in data set [4] was less than 0.02 µM.

As to `CC(C)C[C@@H](C(=O)N1C[C@@]2(C[C@H]1C#N)N=C(c1ccccc1)NC2=O)N(C)C(=O)[C@H](C)NC(=O)C(F)(F)F` [Compound 12, (2S)—N-[(2S)-1-[(5R,8S)-8-cyano-4-oxo-2-phenyl-1,3,7-triazaspiro[4.4]non-1-en-7-yl]-4-methyl-1-oxopentan-2-yl]-N-methyl-2-(2,2,2-trifluoroacetamido)propanamide], the half-maximal effective concentration (EC50) in data set [1] (class symbols) and in data set [5] (class symbols) was 1 to 10 µM throughout. In data set [2], the CC50 is greater than 1 µM. Besides, the CC50 at 6 days in data set [3] is greater than 10 µM. Also, the IC50 in data set [4] lay in the range of 0.02 to 0.2 µM.

For orientation: EC50 means the concentration needed to bring the measured effect to its halfway point. Broadly, the IC50 is the concentration that inhibits the measured activity by half.
